From ChEMBL document CHEMBL1137594, “Discovery of non-covalent dipeptidyl peptidase IV inhibitors which induce a conformational change in the active site” (Bioorg Med Chem Lett, 2007)

Biological target: Dipeptidyl peptidase 4 (Rattus norvegicus, UniProt P14740)
Conditions: po, read-out: Reduction
Description: Ex vivo DDP-IV inhibition after a 30 mpk oral administration to healthy rats compared to vehicle in an oral glucose tolerance test (OGTT)

Chain of Dipeptidyl peptidase 4 (P14740 whole entry): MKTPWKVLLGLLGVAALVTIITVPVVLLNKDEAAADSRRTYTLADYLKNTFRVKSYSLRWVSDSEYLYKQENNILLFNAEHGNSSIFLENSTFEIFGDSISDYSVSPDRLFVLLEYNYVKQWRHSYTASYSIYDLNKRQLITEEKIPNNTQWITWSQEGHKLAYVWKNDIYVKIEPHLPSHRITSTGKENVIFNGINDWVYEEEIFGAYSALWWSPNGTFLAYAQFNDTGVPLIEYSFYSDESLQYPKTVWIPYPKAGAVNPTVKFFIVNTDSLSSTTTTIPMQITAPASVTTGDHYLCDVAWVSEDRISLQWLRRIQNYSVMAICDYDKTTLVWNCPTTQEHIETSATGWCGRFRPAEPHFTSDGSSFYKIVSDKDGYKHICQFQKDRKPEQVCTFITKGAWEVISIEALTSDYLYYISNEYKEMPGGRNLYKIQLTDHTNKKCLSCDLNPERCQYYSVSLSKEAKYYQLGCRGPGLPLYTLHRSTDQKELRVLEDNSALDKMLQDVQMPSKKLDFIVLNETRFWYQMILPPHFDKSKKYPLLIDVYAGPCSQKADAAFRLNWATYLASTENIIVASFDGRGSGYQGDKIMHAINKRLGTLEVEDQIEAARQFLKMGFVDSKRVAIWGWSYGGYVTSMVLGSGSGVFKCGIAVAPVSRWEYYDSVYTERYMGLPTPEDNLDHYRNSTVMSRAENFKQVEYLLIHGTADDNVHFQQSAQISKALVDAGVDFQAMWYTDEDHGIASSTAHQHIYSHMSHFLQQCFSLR

inhibition at 30 mg/kg: 24%
SMILES: NC(=O)c1ccc(OCC2(NCC(=O)c3ccsc3)CCCC2)cc1
